Results published in patent US6476026B1, “Compounds and compositions as protease inhibitors” (Axys Pharmaceuticals, Inc., priority 1999, dated 2002).

Molecule `N#CCNC(=O)[C@H]1CCCN1C(=O)OCc1ccccc1` [Compound 50, benzyl 2R-cyanomethylcarbamoylpyrrolidine-1-carboxylate] has a melting point of 135 to 136 °C.
